Data published in patent publication US6835808B2, “Anti-heparin peptides” (Diagnostica-Stago, priority 2000, dated 2004).

Tests used:
[1] = test system: UFH (unfractionated heparin, Calciparine) in plasma; assay: Anti-heparin power in a PT (Quick time) test with thromboplastin reagent, heparinized vs nonheparinized plasma; format: biochemical; settings: anti-heparin agent at 5 μg/ml in thromboplastin reagent; pool of normal plasma with 0 vs 1 IU/ml UFH; delta relative clotting time
Protocol: The aim is to analyze the performance (anti-heparin power and turbidity) of anti-heparin agents incorporated into a Diagnostica Stago thromboplastin reagent.
Analysis of the anti-heparin power: This is the ability of the anti-heparin agent to make the reagent insensitive to the heparin contained in the blood sample:
The test samples are prepared from a pool of normal plasma which may or may not be overloaded with heparin (plasma heparinized with 1 IU/ml of UFH (Calciparine 25 000 IU/ml, Sanofi)).
Comment: a reagent serving as a negative control, i.e. without anti-heparin agent, is of use to verify the heparinization of the plasma.
To determine the Quick Time, the automated device (STA Diagnostica Stago—patent EP 0325874) removes 50 μl of sample plasma, which it allows to incubate at 37° C. for 240 seconds in a cupule containing a bead; it then transfers the cupule into the measuring area and adds 100 μl of thromboplastin reagent to the sample.
The clotting time was determined in the following way: At constant viscosity, the amplitude of oscillation of the bead in the cupule (oscillation maintained using an electromagnetic field) is constant. When the viscosity increases (clotting phenomenon), the amplitude of oscillation of the bead decreases.
An algorithm uses this variation in amplitude to determine the clotting time.
The anti-heparin power is calculated in the following way: determination of the delta relative time between a heparinized and nonheparinized plasma, i.e.:
[{CT(heparinized plasma)−CT(nonheparinized plasma)}/TC(nonheparinized plasma)×100]
The anti-heparin power of the compounds according to the invention is estimated to be significant when this delta time is less than 10%.

[2] = Turbidity of the thromboplastin reagent containing the anti-heparin agent (OD at 630 nm); format: physicochemical; settings: anti-heparin agent at 5 μg/ml in thromboplastin-type reagent
Protocol: The turbidity should be as low as possible for an application in diagnosis, and more particularly in a thromboplastin test (PT).
This turbidity is determined by measuring the OD at 630 nm on a spectrophotometer (Uvikon 940, Kontron).
Comment: a reagent serving as a negative control, i.e. without anti-heparin agent, is of use to measure the influence of this anti-heparin agent on the turbidity of the reagent.

Substance | Turbidity OD 630 nm [2] | Anti-UFH power Delta time 0/1 IU/ml (in %) [1]
Hyp-K4-(AHA)2-K4-AHA-K4-AHA-K2 [1415-3] | 0.134 OD | 3.4%
Pro-K3-AHA-K4-APA-K4-APA-K2 [1403PK] | 0.283 OD | 8.7%
Pro-K3-AHA-K4-APA-K4-APA-K2 [1403P] | 0.205 OD | 7.1%
Pro-K4-AHA-K3-APA-K3-APA-K2 [compound 1404] | 0.147 OD | 7.6%
Pro-K4-AHA-K4-APA-K3-APA-K3 [compound 1394] | 0.399 OD | 6.4%
THC-K4-(AHA)2-K4-AHA-K4-AHA-K2 [1415-4] | 0.148 OD | 5.9%

Continued, in another order:

Turbidity OD 630 nm [2] | Substance | Anti-UFH power Delta time 0/1 IU/ml (in %) [1]
0.069 OD | PGlu-K4-(AHA)2-K4-AHA-K4-AHA-K2 [1415-5] | 4.5%
0.086 OD | Pro-K4-(AHA)2-K4-AHA-K3-AHA-K2 [compound 1411] | 6.5%
0.323 OD | Pro-K4-(AHA)2-K4-AHA-K4-AHA-K2 [compound 1405] | 4.2%
0.040 OD | Pro-K4-AHA-K3-APA-K4-APA-K3 [1408-2] | 6.9%
0.488 OD | Pro-K4-AHA-K4-APA-K4-APA-K2 [compound 1401] | 8.1%
0.104 OD | Thi-K4-(AHA)2-K4-AHA-K4-AHA-K2 [1415-2] | 5.7%
